From patent US9957271B2, “Substituted bicyclic aza-heterocycles and analogues as sirtuin modulators” (GlaxoSmithKline, LLC, priority 2012, dated 2018)

Experiments:
[1] = biological target: T1, SIRT1 (Homo sapiens, UniProt Q96EB6); assay: TAMRA based mass spectrometry assay of SIRT1 activity; type: biochemical; conditions: for Emax: read-out: TAMRA % Fold Act
T1 sequence (Q96EB6 1-747): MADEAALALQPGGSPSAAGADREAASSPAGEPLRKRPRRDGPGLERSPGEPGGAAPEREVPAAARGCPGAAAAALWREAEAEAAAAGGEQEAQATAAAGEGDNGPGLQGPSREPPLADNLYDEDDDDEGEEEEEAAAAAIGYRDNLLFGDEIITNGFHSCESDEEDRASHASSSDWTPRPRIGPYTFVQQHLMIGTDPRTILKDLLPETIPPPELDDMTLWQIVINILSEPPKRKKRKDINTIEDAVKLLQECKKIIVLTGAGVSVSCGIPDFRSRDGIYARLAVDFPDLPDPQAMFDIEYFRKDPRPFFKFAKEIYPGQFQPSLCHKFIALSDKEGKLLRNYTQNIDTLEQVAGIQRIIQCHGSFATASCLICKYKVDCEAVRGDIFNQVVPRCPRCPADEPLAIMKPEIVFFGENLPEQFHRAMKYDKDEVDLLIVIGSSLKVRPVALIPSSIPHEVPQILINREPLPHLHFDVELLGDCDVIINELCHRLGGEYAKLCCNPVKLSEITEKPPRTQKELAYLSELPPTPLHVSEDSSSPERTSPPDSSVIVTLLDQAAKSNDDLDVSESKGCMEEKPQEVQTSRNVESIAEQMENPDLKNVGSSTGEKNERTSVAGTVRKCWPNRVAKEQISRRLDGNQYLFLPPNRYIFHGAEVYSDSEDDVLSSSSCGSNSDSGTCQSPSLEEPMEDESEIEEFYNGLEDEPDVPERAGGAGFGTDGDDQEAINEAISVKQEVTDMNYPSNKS
In short: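 Deacetylation of a biotinylated, TAMRA-tagged p53-based peptide (0.5 μM) by 10 nM His-tagged SIRT1 with 120 μM βNAD+, 25 °C for 25 min, pH 8 Tris-acetate buffer, across a compound concentration range. Quenched by formic acid and read by mass spec as product peptide or OAADPR; activity relative to DMSO reactions, nicotinamide defining maximal inhibition.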

[2] = biological target: T1, SIRT1; assay: Trp mass spectrometry assay of SIRT1 activity; type: biochemical; conditions: for Emax: read-out: Trp % Fold Act
In short: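 Activation readout: EC1.5 (concentration raising activity 50% over control) and percent maximum activation, from mass-spec quantitation of OAADPR or deacetylated Trp peptide. Reaction: 0.5 μM acetylated Trp peptide, 120 μM βNAD+, 10 nM bacterially expressed N-His SIRT1, pH 7.5 HEPES buffer with […], 25 min at 25° C.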

[3] = TAMRA assay, concentration giving 150% activation of SIRT1
[4] = TAMRA assay, percent maximum fold activation
[5] = Trp assay, concentration giving 150% activation of SIRT1
[6] = Trp assay, percent maximum fold activation
[7] = TAMRA peptide substrate, concentration giving 150% activation of SIRT1
[8] = TAMRA peptide substrate, percent maximum fold activation
[9] = Trp peptide substrate, concentration giving 150% activation of SIRT1
[10] = Trp peptide substrate, percent maximum fold activation
[11] = concentration of test compound giving 150% activation of SIRT1, TAMRA peptide substrate
[12] = percent maximum fold activation of SIRT1, TAMRA peptide substrate
[13] = concentration of test compound giving 150% activation of SIRT1, Trp peptide substrate
[14] = percent maximum fold activation of SIRT1, Trp peptide substrate

SMILES | TAMRA EC1.5 (μM) [1, 3] | Emax [1, 4] [%] | Trp EC1.5 (μM) [2, 5] | Emax [2, 6] [%] | other results
O=C(Nc1cncc(F)c1)c1cnn2ccc(-c3ccccc3C(F)(F)F)nc12 [Compound 642] | A (EC1.5<1 μM) | ≥ 350 | B (EC1.5 1-25 μM) | ≥ 350 | 
O=C(Nc1cnc2ccc(-c3ccccc3F)nn12)c1cccc(OCC(O)CO)n1 (centres unmarked) [Compound 305] | B (EC1.5 1-25 μM) | < 350 | A (EC1.5<1 μM) | < 350 | 
COc1cccc(NC(=O)c2c(C)nn3ccc(-c4ccccc4C(F)(F)F)nc23)n1 [Compound 551, N-(6-methoxypyridin-2-yl)-2-methyl-5-(2-(trifluoromethyl)phenyl)pyrazolo[1,5-a]pyrimidine-3-carboxamide] |  |  |  |  | TAMRA EC1.5 [1, 7]: A (EC1.5<1 μM); Emax [1, 8]: ≥ 350%; Trp EC1.5 [2, 9]: A (EC1.5<1 μM); Emax [2, 10]: ≥ 350%
COc1cccc(C(=O)Nc2cnn3ccc(-c4ccccc4C(F)(F)F)nc23)n1 [Compound 521] |  |  |  |  | TAMRA EC1.5 [1, 7]: A (EC1.5<1 μM); Emax [1, 8]: ≥ 350%; Trp EC1.5 [2, 9]: A (EC1.5<1 μM); Emax [2, 10]: < 350%
O=C(Nc1ccnc(N2CCC2)c1)c1cnc2ccc(-c3cccc(Cl)c3F)nn12 [Compound 159] |  |  |  |  | TAMRA EC1.5 (μM) [1, 11]: A (EC1.5<1 μM); Emax [1, 12]: < 350%; Trp EC1.5 (μM) [2, 13]: B (EC1.5 1-25 μM); Emax [2, 14]: < 350%
Cc1c(-c2ccccc2C(F)(F)F)nn2c(C(=O)Nc3cccc(N4CCOCC4)n3)cnc2c1C [Compound 227] | A (EC1.5<1 μM) | ≥ 350 | B (EC1.5 1-25 μM) | ≥ 350 | 
Cc1cnc(C(=O)Nc2cnn3ccc(-c4ccccc4C(F)(F)F)nc23)cn1 [Compound 800] | B (EC1.5 1-25 μM) | ≥ 350 | C (EC1.5>25 μM) | < 350 | 
O=C(Nc1cccc(CN2CCOCC2)n1)c1cnc2ccc(-c3cccc(C(F)(F)F)c3)nn12 [Compound 5] |  |  |  |  | TAMRA EC1.5 (μM) [1, 11]: A (EC1.5<1 μM); Emax [1, 12]: ≥ 350%; Trp EC1.5 (μM) [2, 13]: B (EC1.5 1-25 μM); Emax [2, 14]: < 350%
Cc1cc(-c2ccccc2C(F)(F)F)nn2c(NC(=O)c3cccc(OCC(O)CO)n3)cnc12 (centres unmarked) [Compound 427] |  |  |  |  | TAMRA EC1.5 [1, 7]: A (EC1.5<1 μM); Emax [1, 8]: ≥ 350%; Trp EC1.5 [2, 9]: A (EC1.5<1 μM); Emax [2, 10]: ≥ 350%
Cc1cc(NC(=O)c2cnn3ccc(-c4ccccc4OC(F)(F)F)nc23)ccn1 [Compound 612] | A (EC1.5<1 μM) | ≥ 350 | A (EC1.5<1 μM) | ≥ 350 | 
Cc1ccncc1NC(=O)c1cnn2ccc(-c3ccccc3OC(F)(F)F)nc12 [Compound 610] | B (EC1.5 1-25 μM) | < 350 | A (EC1.5<1 μM) | ≥ 350 | 
Cc1cccc(C(=O)Nc2cnn3ccc(-c4ccccc4OC(F)(F)F)nc23)n1 [Compound 725] | A (EC1.5<1 μM) | ≥ 350 | B (EC1.5 1-25 μM) | < 350 | 
Cc1cc(C)c(NC(=O)c2c(C)nn3ccc(-c4ccccc4Br)nc23)cn1 [Compound 826] | B (EC1.5 1-25 μM) | ≥ 350 | A (EC1.5<1 μM) | < 350 | 
O=C(Nc1cnc2ccc(-c3ccccc3C(F)(F)F)nn12)c1cccnc1 [Compound 86] |  |  |  |  | TAMRA EC1.5 (μM) [1, 11]: C (EC1.5>25 μM); Emax [1, 12]: < 350%; Trp EC1.5 (μM) [2, 13]: C (EC1.5>25 μM); Emax [2, 14]: < 350%
O=C(Nc1ccnc(N2CCOCC2)c1)c1nnc2ccc(-c3ccccc3C(F)F)nn12 [Compound 68] |  |  |  |  | TAMRA EC1.5 (μM) [1, 11]: B (EC1.5 1-25 μM); Emax [1, 12]: < 350%; Trp EC1.5 (μM) [2, 13]: B (EC1.5 1-25 μM); Emax [2, 14]: < 350%
Cc1nc(C(=O)Nc2cnc3ccc(-c4ccccc4Cl)nn23)c(C)s1 [Compound 293] | A (EC1.5<1 μM) | ≥ 350 | C (EC1.5>25 μM) | < 350 | 
O=C(Nc1cnn2ccc(-c3ccccc3OC(F)(F)F)nc12)c1ncc(F)cc1F [Compound 755] | A (EC1.5<1 μM) | ≥ 350 | B (EC1.5 1-25 μM) | < 350 | 
Cc1nc2c(C)cc(-c3ccccc3C(F)(F)F)nn2c1NC(=O)c1cccc(O)n1 [Compound 590] |  |  |  |  | TAMRA EC1.5 [1, 7]: B (EC1.5 1-25 μM); Emax [1, 8]: < 350%; Trp EC1.5 [2, 9]: C (EC1.5>25 μM); Emax [2, 10]: < 350%
Cc1nc2ccc(-c3ccccc3C(F)(F)F)nn2c1C(=O)Nc1cccc(N2CCOCC2)n1 [Compound 71] |  |  |  |  | TAMRA EC1.5 (μM) [1, 11]: A (EC1.5<1 μM); Emax [1, 12]: ≥ 350%; Trp EC1.5 (μM) [2, 13]: A (EC1.5<1 μM); Emax [2, 14]: ≥ 350%
Cc1cnc(C(=O)Nc2cnn3ccc(-c4ccccc4OC(F)(F)F)nc23)cn1 [Compound 734] | B (EC1.5 1-25 μM) | ≥ 350 | C (EC1.5>25 μM) | < 350 | 
O=C(Nc1cnc2ccc(-c3ccccc3C(F)(F)F)nn12)c1cccc(OCC(O)CO)n1 (centres unmarked) [Compound 83] |  |  |  |  | TAMRA EC1.5 (μM) [1, 11]: A (EC1.5<1 μM); Emax [1, 12]: ≥ 350%; Trp EC1.5 (μM) [2, 13]: A (EC1.5<1 μM); Emax [2, 14]: ≥ 350%
Cc1cccc(C(=O)Nc2cnc3ccc(N4CC[C@H](F)C4)nn23)n1 [Compound 565, (S)-N-(6-(3-fluoropyrrolidin-1-yl)imidazo[1,2-b]pyridazin-3-yl)-6-methylpicolinamide] |  |  |  |  | TAMRA EC1.5 [1, 7]: B (EC1.5 1-25 μM); Emax [1, 8]: ≥ 350%; Trp EC1.5 [2, 9]: B (EC1.5 1-25 μM); Emax [2, 10]: < 350%
COc1nccc(NC(=O)c2cnn3ccc(-c4ccccc4OC(F)(F)F)nc23)n1 [Compound 797] | A (EC1.5<1 μM) | ≥ 350 | A (EC1.5<1 μM) | ≥ 350 | 
O=C(Nc1cnn2ccc(-c3ccccc3OC(F)(F)F)nc12)c1ncccc1F [Compound 754] | A (EC1.5<1 μM) | ≥ 350 | B (EC1.5 1-25 μM) | < 350 | 

Now from value to compound, other results behind:

TAMRA EC1.5 (μM) [1, 3] | Emax [1, 4] [%] | Trp EC1.5 (μM) [2, 5] | Emax [2, 6] [%] | SMILES | other results
A (EC1.5<1 μM) | ≥ 350 | B (EC1.5 1-25 μM) | < 350 | COc1ccc(NC(=O)c2c(C)nc3ccc(-c4ccccc4C(F)(F)F)nn23)nn1 [Compound 665] | 
A (EC1.5<1 μM) | ≥ 350 | B (EC1.5 1-25 μM) | < 350 | Cc1cncc(NC(=O)c2cnn3ccc(-c4ccccc4C(F)(F)F)nc23)n1 [Compound 654] | 
A (EC1.5<1 μM) | ≥ 350 | A (EC1.5<1 μM) | ≥ 350 | Cc1nn2ccc(-c3ccccc3C(F)(F)F)nc2c1C(=O)Nc1cccnn1 [Compound 695] | 
A (EC1.5<1 μM) | < 350 | A (EC1.5<1 μM) | < 350 | COc1cccc(NC(=O)c2cnc3ccc(-c4ccccc4Cl)nn23)n1 [Compound 261] | 
A (EC1.5<1 μM) | ≥ 350 | A (EC1.5<1 μM) | ≥ 350 | COc1ccnc(NC(=O)c2c(C)nc3ccc(-c4ccccc4C(F)(F)F)nn23)c1 [Compound 671] | 
A (EC1.5<1 μM) | ≥ 350 | A (EC1.5<1 μM) | ≥ 350 | Cc1cnc(NC(=O)c2c(C)nn3ccc(-c4ccccc4C(F)(F)F)nc23)cn1 [Compound 710] | 
A (EC1.5<1 μM) | ≥ 350 | A (EC1.5<1 μM) | ≥ 350 | Cc1cccc(NC(=O)c2c(C)nc3ccc(-c4ccccc4OC[C@H](O)CO)nn23)n1 [Compound 816] | 
B (EC1.5 1-25 μM) | < 350 | C (EC1.5>25 μM) | < 350 | Cc1nc2ccc(-c3ccccc3Cl)nn2c1NC(=O)c1ccccn1 [Compound 346] | 
